Consider nine compounds from patent publication US9133148B2, “Carbamate compounds and of making and using same” (Abide Therapeutics, Inc., priority 2012, dated 2015).

The target of one test is MAGL (Mus musculus (Mouse), UniProt O35678). The test can be described thus: In vitro competitive activity-based protein profiling (FP-Rh), mouse MAGL. Conditions: mouse brain membrane proteome. It counts as biochemical. Here is the method:
(§1) In Vitro Competitive Activity-Based Protein Profiling.
(§2) Proteomes (mouse brain membrane fraction or cell lysates) ([…], 1.0 mg/mL total protein concentration) were preincubated with varying concentrations of inhibitors at 37° C. After 30 min, FP-Rh (1.0 μL, 50 μM in DMSO) was added and the mixture was incubated for another 30 min at 37° C. Reactions were quenched with SDS loading buffer (50 μL—4×) and run on SDS-PAGE.

The next test deals with FAAH (Mus musculus (Mouse), UniProt O08914). The test can be described thus: In vitro competitive activity-based protein profiling (FP-Rh), mouse FAAH. It is filed as biochemical. Conditions: mouse brain membrane proteome. Here is the method: as §1, §2
Sequence of FAAH (O08914 whole entry): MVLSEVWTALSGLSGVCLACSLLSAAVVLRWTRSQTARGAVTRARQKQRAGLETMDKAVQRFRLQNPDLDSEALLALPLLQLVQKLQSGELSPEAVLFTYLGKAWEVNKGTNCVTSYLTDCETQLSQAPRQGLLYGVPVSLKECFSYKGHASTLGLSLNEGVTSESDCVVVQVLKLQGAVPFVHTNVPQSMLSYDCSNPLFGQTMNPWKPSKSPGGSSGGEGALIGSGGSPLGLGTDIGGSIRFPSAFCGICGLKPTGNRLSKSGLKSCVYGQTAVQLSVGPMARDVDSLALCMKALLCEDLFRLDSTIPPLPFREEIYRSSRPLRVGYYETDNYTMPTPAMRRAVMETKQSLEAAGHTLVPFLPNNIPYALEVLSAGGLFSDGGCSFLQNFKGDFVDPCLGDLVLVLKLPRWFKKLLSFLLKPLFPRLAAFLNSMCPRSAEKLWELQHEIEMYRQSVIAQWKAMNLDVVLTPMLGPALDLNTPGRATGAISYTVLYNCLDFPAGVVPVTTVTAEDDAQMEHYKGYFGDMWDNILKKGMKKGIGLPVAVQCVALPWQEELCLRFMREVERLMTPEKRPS
The target in the next test is ABHD6 (Mus musculus (Mouse), UniProt Q8R2Y0). Nature of the test: In vitro competitive activity-based protein profiling (FP-Rh), mouse ABHD6. It counts as biochemical. Conditions: mouse brain membrane proteome. Here is the method:
as §1, §2

The target in another test is Mouse brain MAGL (Mus musculus (Mouse), UniProt O35678). Nature of the test: Mouse brain proteomes from inhibitor treated mice (oral gavage, ABPP of brain MAGL). It is filed as in vivo. Conditions: for Mouse brain MAGL (% inhibition at 20 mg/kg, p.o.) / Mouse brain MAGL (% inhibition at 5 mg/kg, p.o.): 4 h following administration. The method, then: Preparation of Mouse Brain Proteomes from Inhibitor Treated Mice.
Sequence of Mouse brain MAGL (O35678 whole entry): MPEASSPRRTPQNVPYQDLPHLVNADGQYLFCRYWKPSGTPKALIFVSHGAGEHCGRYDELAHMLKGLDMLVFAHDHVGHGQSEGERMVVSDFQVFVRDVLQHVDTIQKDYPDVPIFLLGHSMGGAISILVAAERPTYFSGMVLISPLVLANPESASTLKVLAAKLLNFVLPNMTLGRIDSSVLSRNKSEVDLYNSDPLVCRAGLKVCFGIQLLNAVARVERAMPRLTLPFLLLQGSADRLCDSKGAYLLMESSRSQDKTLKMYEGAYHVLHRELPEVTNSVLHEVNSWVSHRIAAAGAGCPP
Inhibitors were administered to wild-type C57Bl/6J by oral gavage in a vehicle of polyethylene glycol.

The next test addresses Human MAGL (Homo sapiens (Human), UniProt Q99685). The test can be described thus: Competitive ABPP with recombinant human MAGL expressed in HEK293T cells. It is filed as biochemical. Conditions: hMAGL in HEK293T cell lysates. Here is the method: as §2
Recombinant Expression of Human MAGL in HEK293T Cells.
Cell lysates were diluted with mock proteomes for use in competitive ABPP experiments.

Each structure is given as a SMILES string.

Sequence of ABHD6 (Q8R2Y0 whole entry): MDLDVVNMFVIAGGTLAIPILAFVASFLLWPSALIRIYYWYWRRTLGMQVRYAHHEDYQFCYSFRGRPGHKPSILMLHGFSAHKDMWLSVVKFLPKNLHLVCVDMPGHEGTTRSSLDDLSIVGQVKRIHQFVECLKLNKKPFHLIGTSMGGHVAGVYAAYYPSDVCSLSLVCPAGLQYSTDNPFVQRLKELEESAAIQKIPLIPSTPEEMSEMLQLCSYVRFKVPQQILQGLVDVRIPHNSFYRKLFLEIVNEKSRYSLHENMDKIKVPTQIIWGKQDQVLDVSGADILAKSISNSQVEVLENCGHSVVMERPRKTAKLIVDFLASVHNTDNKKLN
Sequence of MAGL (O35678 whole entry): as the sequence (O35678 whole entry) above
Sequence of Human MAGL (Q99685 whole entry): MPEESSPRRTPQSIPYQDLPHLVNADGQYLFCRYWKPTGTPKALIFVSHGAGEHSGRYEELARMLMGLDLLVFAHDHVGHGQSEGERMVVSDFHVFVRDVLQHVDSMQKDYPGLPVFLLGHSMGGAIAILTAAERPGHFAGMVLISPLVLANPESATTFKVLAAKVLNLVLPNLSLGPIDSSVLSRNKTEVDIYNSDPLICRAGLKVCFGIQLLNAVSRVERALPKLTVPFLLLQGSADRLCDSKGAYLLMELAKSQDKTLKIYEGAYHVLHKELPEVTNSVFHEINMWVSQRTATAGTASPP

On to `COC(c1ccc2c(c1)OCO2)(c1ccc2c(c1)OCO2)C1CCN(C(=O)OC(C(F)(F)F)C(F)(F)F)CC1` [Example 1b, 1,1,1,3,3,3-hexafluoropropan-2-yl 4-(bis(benzo[d][1,3]dioxol-5-yl)(methoxy)methyl)piperidine-1-carboxylate], for which the IC50 is below 100 nM at MAGL (competitive ABPP), above 10000 nM on FAAH (competitive ABPP) and 100 to 1000 nM at ABHD6 (competitive ABPP). The “Mouse brain MAGL (% inhibition at 20 mg/kg, p.o.)” value on Mouse brain MAGL worked out at 13%.

`O=C(OC(C(F)(F)F)C(F)(F)F)N1CCN(S(=O)(=O)c2cccc(C(F)(F)F)c2)CC1` [Example 4i, 1,1,1,3,3,3-hexafluoropropan-2-yl 4-((3-(trifluoromethyl)phenyl)-sulfonyl)piperazine-1-carboxylate]: the concentration for half-maximal inhibition (IC50) was 100 to 1000 nM on MAGL (competitive ABPP), above 10000 nM at FAAH (competitive ABPP), above 1000 nM on ABHD6 (competitive ABPP) and 100 to 1000 nM at Human MAGL.

In the case of `CNC(=O)C(OC(=O)N1CCN(C(c2ccc(Cl)cc2)c2ccc(Cl)cc2)CC1)C(F)(F)F` (stereo not drawn) [Example 6j, 1,1,1-trifluoro-3-(methylamino)-3-oxopropan-2-yl 4-(bis(4-chlorophenyl)methyl)piperazine-1-carboxylate], the IC50 on MAGL (competitive ABPP) was 100 to 1000 nM; on FAAH (competitive ABPP) it was above 10000 nM; at ABHD6 (competitive ABPP), below 100 nM. Moreover, at Mouse brain MAGL, the “Mouse brain MAGL (% inhibition at 20 mg/kg, p.o.)” value is above 95%.

For the compound `CC(=O)NC1CCN(c2cc(Cl)ccc2CN2CCN(C(=O)OC(C(F)(F)F)C(F)(F)F)CC2)C1` (stereo not drawn) [Example 9af, 1,1,1,3,3,3-hexafluoropropan-2-yl 4-(2-(3-acetamidopyrrolidin-1-yl)-4-chlorobenzyl)piperazine-1-carboxylate], the IC50 on MAGL (competitive ABPP (Table 7)) was 100 to 1000 nM; on FAAH (competitive ABPP (Table 7)), above 10000 nM; on ABHD6 (competitive ABPP (Table 7)), above 1000 nM. Besides, the ED50 at Mouse brain MAGL (po) is below 4 mg/kg.

Regarding `O=C(OC(C(F)(F)F)C(F)(F)F)N1CCN(Cc2cccc(Cl)c2N2CCCC2)CC1` [Example 9ar, 1,1,1,3,3,3-hexafluoropropan-2-yl 4-(3-chloro-2-(pyrrolidin-1-yl)benzyl)piperazine-1-carboxylate], the half-inhibitory concentration (IC50) is below 100 nM at MAGL (competitive ABPP (Table 7)), above 10000 nM on FAAH (competitive ABPP (Table 7)) and above 1000 nM at ABHD6 (competitive ABPP (Table 7)). At Mouse brain MAGL, the “Mouse brain MAGL (% inhibition at 5 mg/kg, p.o.)” value came to 75%.

Turning to `O=C(OC(C(F)(F)F)C(F)(F)F)N1CCN(Cc2ccc(Cl)cc2N2CCC3(CCOCC3)C2)CC1` [Example 9av, 1,1,1,3,3,3-hexafluoropropan-2-yl 4-(4-chloro-2-(8-oxa-2-azaspiro[4.5]decan-2-yl)benzyl)piperazine-1-carboxylate], the IC50 at MAGL (competitive ABPP (Table 7)) is below 100 nM; at FAAH (competitive ABPP (Table 7)), above 10000 nM; at ABHD6 (competitive ABPP (Table 7)), above 1000 nM. Also, the “Mouse brain MAGL (% inhibition at 5 mg/kg, p.o.)” value on Mouse brain MAGL turned out to be 75%.

For `O=C(OC(C(F)(F)F)C(F)(F)F)N1CCN(Cc2ccc(Cl)cc2N2CCC3(CCNC3=O)CC2)CC1` [Example 9ax, 1,1,1,3,3,3-hexafluoropropan-2-yl 4-(4-chloro-2-(1-oxo-2,8-diazaspiro[4.5]decan-8-yl)benzyl)piperazine-1-carboxylate], the IC50 on MAGL (competitive ABPP (Table 7)) was below 100 nM; on FAAH (competitive ABPP (Table 7)) it was above 10000 nM; at ABHD6 (competitive ABPP (Table 7)), above 1000 nM. For the same compound, at Mouse brain MAGL, the “Mouse brain MAGL (% inhibition at 5 mg/kg, p.o.)” value was determined as 75%.

On to `O=C(OC(C(F)(F)F)C(F)(F)F)N1CCN(Cc2ccc(Cl)cc2N2CCC2)CC1` [Example 9ay, 1,1,1,3,3,3-hexafluoropropan-2-yl 4-(2-(azetidin-1-yl)-4-chlorobenzyl)piperazine-1-carboxylate], for which the IC50 is below 100 nM at MAGL (competitive ABPP (Table 7)), above 10000 nM at FAAH (competitive ABPP (Table 7)) and above 1000 nM at ABHD6 (competitive ABPP (Table 7)). The “Mouse brain MAGL (% inhibition at 5 mg/kg, p.o.)” value on Mouse brain MAGL was determined as 50%.

With `O=C(OC(C(F)(F)F)C(F)(F)F)N1CCN(Cc2ccc(Cl)cc2N2Cc3cccnc3C2)CC1` [Example 9bh, 1,1,1,3,3,3-hexafluoropropan-2-yl 4-(4-chloro-2-(5H-pyrrolo[3,4-b]pyridin-6(7H)-yl)benzyl)piperazine-1-carboxylate], the 50% inhibitory concentration (IC50) is below 100 nM at MAGL (competitive ABPP (Table 7)), above 10000 nM at FAAH (competitive ABPP (Table 7)) and 100 to 1000 nM on ABHD6 (competitive ABPP (Table 7)). The “Mouse brain MAGL (% inhibition at 5 mg/kg, p.o.)” value on Mouse brain MAGL was found to be 25%.

As usually defined, the IC50 is the concentration that gives 50% inhibition. One may read the ED50 as the dose at which the effect has come halfway, by size or by number of responders. Higher therefore signals weaker potency.
